Experimental data as given in patent publication US20100184698A1, “USE OF A […] […] A […] AGENT” (priority 2007, published 2010).
Read-outs that look alike come from different tables or passages of the source. Where no end group is shown, it is not given here.

System: drug-resistant Mycobacterium tuberculosis

Compound | inhibition of the growth of Mycobacterium tuberculosis (drug-resistant, 5 micrograms per ml) | inhibition of the growth of Mycobacterium tuberculosis
CCNC(=O)[C@@H]1CCCN1C(=O)[C@H](CCCN=C(N)N)NC(=O)[C@H](CC(C)C)NC(=O)[C@@H](Cc1c[nH]c2ccccc12)NC(=O)[C@H](Cc1ccc(O)cc1)NC(=O)[C@H](CO)NC(=O)[C@H](Cc1c[nH]c2ccccc12)NC(=O)[C@H](Cc1cnc[nH]1)NC(=O)[C@@H]1CCC(=O)N1 [Peptide 1, Pyr-His-Trp-Ser-Tyr-D-Trp-Leu-Arg-Pro-NHEt] | 100% | –
Ile-Asn-Leu-Lys-Ala-Leu-Ala-Ala-Leu-Ala-Lys-Lys-Ile-Leu-NH2 (INLKALAALAKKIL-NH2) [Peptide 2] | – | 100%
